Reference: publication doi:10.1101/2025.07.05.663305v1, “Structure of Photosystem I with SOD reveals coupling between energy conversion and oxidative stress protection” (biorxiv, 2025)

Molecular target: T1, FCPb (Chromera velia, UniProt A0A0G4ID45)
T1 construct: gene Cvel_13255; native PSI-SOD-FCPI supercomplex purified from cells; contacts PsaD, PsaL, PsaA2 and SOD1
T1 sequence (A0A0G4ID45 1-293): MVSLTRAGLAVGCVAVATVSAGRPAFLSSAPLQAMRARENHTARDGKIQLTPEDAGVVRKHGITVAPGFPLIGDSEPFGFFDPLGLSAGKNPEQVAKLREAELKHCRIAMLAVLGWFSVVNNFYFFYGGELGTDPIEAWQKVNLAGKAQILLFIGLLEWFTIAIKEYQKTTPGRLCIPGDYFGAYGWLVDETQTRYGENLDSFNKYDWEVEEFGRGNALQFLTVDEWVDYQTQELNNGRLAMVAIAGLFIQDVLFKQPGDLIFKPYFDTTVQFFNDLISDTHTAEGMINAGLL
Assay: cryo-EM structure
Type: binding
Settings: four sites 301, 302, 303, 305

## CC(/C=C/C=C(C)/C=C/[C@@]12O[C@]1(C)C[C@@H](O)CC2(C)C)=C\C=C\C=C(C)\C=C\C=C(C)\C=C\[C@@]12O[C@]1(C)C[C@@H](O)CC2(C)C [violaxanthin]
  cryo-EM structure: FCPb binds ten Chls a and four violaxanthins
